Measurements reported in patent US9504671B2, “Pharmaceutical compositions of spiro-oxindole compound for topical administration and their use as therapeutic agents” (Xenon Pharmaceuticals Inc., priority 2010, dated 2016).

Columns and labels:
sodium channel = assay: guanidine influx assay disclosed in WO 06/110917; type: cell-based; details: read-out: IC50, inhibition of ion flux through a sodium channel
Excerpt: The IC50 (“Inhibitory Concentration—50%”) is a measure of the amount of compound required to achieve 50% inhibition of ion flux through a sodium channel, over a specific time period, in an assay of the invention.

[1] = tested on: CFA-induced inflammatory pain model; assay: CFA induced chronic inflammatory pain, von Frey mechanical paw withdrawal threshold; type: in vivo, rats; details: fourth day, 30 minutes post-dosing
Protocol: In this test, mechanical hyperalgesia is assessed with electronic von Frey filament by means of Electrovonfrey anesthesiometer (Model 2290, IITC Life Science, Woodland Hills, Calif.). Following a full week of acclimatization to the vivarium facility, 150 μL of the “Complete Freund's Adjuvant” (CFA) emulsion (CFA suspended in an oil/saline (1:1) emulsion at a final concentration of 0.5 mg/mL) was injected subcutaneously into the plantar surface of the left hind ankle joint of rats under light isoflurane anaesthesia. Animals were allowed to recover from the anaesthesia and the baseline mechanical nociceptive thresholds of all animals were assessed one week after the administration of CFA. All animals were habituated to the experimental chambers for 20 minutes on the day of the experiment. The animals were then randomly assigned to 5 different test groups including a vehicle control group and 4 pharmaceutical compositions with COMPOUND A at 1%, 2%, 4% and 8% (w/w) groups. After baseline measurements, animals were anaesthetized under isoflurane, shaved at the site of application, and then dosed by application of 50 mg test compositions on the entire ipsilateral hind ankle and foot. Animals were then placed in Plexiglas tubes for 30 minutes to prevent early removal/ingestion of drug. Test compositions were applied twice a day for 3 days. On the fourth day, immediately after application, animals were placed in tubes for 15 minutes and then removed and placed in Plexiglas enclosures for 15 minutes prior to making paw withdrawal measurements. Von Frey withdrawal thresholds were measured as the mean of several independent determinations made within 1-2 minutes of each other on the affected paw of each animal 30 minutes post-dosing. The time point used was previously determined to show the highest analgesic effect for each test composition.
(§1) The response thresholds of animals to tactile stimuli were measured using the Model 2290 Electrovonfrey anesthesiometer (IITC Life Science, Woodland Hills, Calif.). Animals were placed in an elevated Plexiglas enclosure set on a mire mesh surface. After 15 minutes of accommodation, a von Frey hair was applied perpendicularly to the plantar surface of the ipsilateral hind paws of the animals with sufficient force, measured in grams, to elicit a crisp response of the paw. The response indicated a withdrawal from the painful stimulus and constituted the efficacy endpoint.

[2] = tested on: CCI-induced neuropathic pain model; assay: time course of efficacy in neuropathic pain model, Chronic Constriction Injury, von Frey; type: in vivo, Sprague-Dawley rats
Protocol: Neuropathic pain is characterized by spontaneous pain and stimulus-evoked allodynia and hyperalgesia. Pharmaceutical compositions of the invention were evaluated in Chronic Constriction Injury model using Sprague-Dawley rats as described below.
An approximately 3 cm incision was made through the skin and the fascia at the mid thigh level of a rat's left hind leg using a no. 10 scalpel blade. The left sciatic nerve was exposed via blunt dissection through the biceps femoris with care to minimize haemorrhagia. Four loose ligatures were tied along the sciatic nerve using four chromic gut sutures at intervals of 1 mm to 2 mm apart. The tension of the loose ligatures was tight enough to induce slight constriction of the sciatic nerve when viewed under a dissection microscope at a magnification of 4 fold. As sham controls, the right sciatic nerve was exposed and manipulated in the same manner as described above, except sutures were not tied onto the nerve. Antibacterial ointment was applied directly into the wound, and the muscle was closed using sterilized sutures. Betadine® was applied onto the muscle and its surroundings, followed by skin closure with surgical clips.
A painful neuropathy was allowed to develop for at least 14 days in the ipsilateral leg as determined by lower paw withdrawal thresholds to a mechanical stimulus. Only those with significant hyperalgesia, as determined by reduced threshold of paw withdrawal to the von Frey filament, measured in grams, were enrolled in the study.
as §1, with “Plexiglass” for “Plexiglas”, “endpoint. The force (in grams) required to elicit a crisp withdrawal response was recorded before dosing as a baseline measurement, and at multiple time points post-dosing.” for “endpoint.”
Three days prior to baseline measurement, animals were anaesthetized under isoflurane and the whole of the ipsilateral hind legs, including the upper sciatic notch thigh area, ankle and foot, was shaved. The animals were then randomly assigned to one of 4 different test groups including a vehicle control group, a 5% (w/v) Lidocaine (Xylocaine®), and 2 pharmaceutical compositions of the invention comprising COMPOUND A at 4% (w/w) containing either 5% or 10% Transcutol® P. After baseline measurement, 100 mg of the test composition was applied on the entire shaved area. The animals were then placed in plastic tubes for at least 15 minutes, to prevent early removal/ingestion of drug. Subsequently, animals were placed in the Plexiglas enclosure 15 minutes before von Frey measurement at the respective time points. Von Frey withdrawal thresholds were measured as the mean of several independent determinations made within 1-2 minutes of each other on the affected paw of each animal at 0.5, 1 and 2 hours post dosing.

For `O=C1N(Cc2ccc(C(F)(F)F)o2)c2ccccc2[C@]12COc1cc3c(cc12)OCO3` [COMPOUND A, (S)-1′-{[5-(trifluoromethyl)furan-2-yl]methyl}spiro[furo[2,3-f][1,3]benzodioxole-7,3′-indol]-2′(1′H)-one], the IC50 (sodium channel) was less than 1000 nM, the “von Frey mechanical paw withdrawal threshold, percent CFB” value ([1]; 1% (w/w) topical composition) was “did not demonstrate an observable increase” and the “von Frey mechanical paw withdrawal threshold, percent CFB” value ([1]; 2% (w/w) topical composition) was “statistically significant increases”. The “von Frey mechanical paw withdrawal threshold, percent CFB” value ([1]; 4% (w/w) topical composition) was “statistically significant increases”, the “von Frey mechanical paw withdrawal threshold, percent change from baseline (CFB)” value ([1]; 8% (w/w) topical composition, 50 mg twice a day for 3 days) was “+45.1%” and the “von Frey mechanical paw withdrawal threshold, percent CFB” value ([1]; 8% (w/w) topical composition) was “statistically significant increases”. The “paw withdrawal threshold, percent mean change from baseline (CFB)” value ([2]; 4% (w/w) in 5% Transcutol P composition, 100 mg applied, 0.5 hours post-dosing) was “+26.3%”, the “paw withdrawal threshold, percent mean change from baseline (CFB)” value ([2]; 4% (w/w) in 5% Transcutol P composition, 1 hour post-dosing) was “+18.1%” and the “paw withdrawal threshold, percent mean change from baseline (CFB)” value ([2]; 4% (w/w) in 10% Transcutol P composition, 100 mg applied, 0.5 hours post-dosing) was “+33.8%”. For the same molecule, the “paw withdrawal threshold, percent mean change from baseline (CFB)” value ([2]; 4% (w/w) in 10% Transcutol P composition, 1 hour post-dosing) was “+26.7%” and the “duration of analgesic effects post-dosing” value ([2]; 4% (w/w) in 10% transcutol composition, from 0.5 hour) was “up to 2 hours”.
